Results reported in paper PMC12040169 (PLOS Biology, 2025).

Assay: in vitro
Details: human, hela cells, % viability

Row | SMILES | viability at 28.5 h, 10 µM [%]
1 | O=C1CN(C(=O)Nc2ccc3[nH]ccc3c2)CCN1 [CBK155858] | 87
2 | CC(=O)Nc1cccc(NC(=O)N2CCNC(=O)C2)c1 [CBK155863] | 77.7
3 | CC(C)CNC(=O)N1CCNC(=O)C1 [CBK155864] | 86.4
4 | O=C1CN(C(=O)NCCc2c[nH]c3ccccc23)CCN1 [CBK155866] | 95.8
5 | O=C1CN(C(=O)NCc2ccc(Cl)cc2)CCN1 [CBK155867] | 109
6 | CC(C)CCNC(=O)N1CCNC(=O)C1 [CBK155874] | 98.3
7 | COc1cc(NC(=O)N2CCNC(=O)C2)cc(OC)c1OC [CBK155875] | 104
8 | CC(NC(=O)N1CCNC(=O)C1)c1ccccc1 (centres unmarked) [CBK155877] | 96
9 | O=C1CN(C(=O)NC2CCc3ccccc32)CCN1 (centres unmarked) [CBK155878] | 97.5
10 | CN1CCC(N2CCN(C(=O)NCC3COc4ccccc4O3)CC2)CC1 (centres unmarked) [CBK155881] | 107
11 | CSCCCNC(=O)N1CCN(C2CCN(C)CC2)CC1 [CBK155882] | 101
12 | CN1CCC(N2CCN(C(=O)NCc3ccc4c(c3)OCO4)CC2)CC1 [CBK155885] | 88.3
13 | CN1CCC(N2CCN(C(=O)NCc3cccnc3)CC2)CC1 [CBK155889] | 89.2
14 | COc1cc(CNC(=O)N2CCN(C3CCN(C)CC3)CC2)cc(OC)c1OC [CBK155893] | 93.3
15 | CN1CCC(N2CCN(C(=O)Nc3ccc4c(c3)OCCO4)CC2)CC1 [CBK155898] | 87
16 | CC(C)CNC(=O)N1CCN(C2CCN(C)CC2)CC1 [CBK155902] | 95.3
17 | CC(C)C(=O)N1CCC(OCc2ccc(-c3ccc(C(=O)N(C)C)cc3)cc2S(C)(=O)=O)CC1 [CBK155921] | 102
18 | CC(C)(C)COC(=O)N1CCC2(CC1)CC(=O)N(Cc1ccc(S(C)(=O)=O)cc1)C2=O [CBK155949] | 91.4
19 | COc1ccc(OC(=O)N2CCC3(CC2)CC(=O)N(Cc2ccc(S(C)(=O)=O)cc2)C3=O)cc1 [CBK155952] | 99.3
20 | CN(C)C(=O)N1CCC2(CC1)CC(=O)N(Cc1ccc(S(C)(=O)=O)cc1)C2=O [CBK155957] | 104
21 | COc1ccc(CNC(=O)N2CCCCC2CO)cc1OC (centres unmarked) [CBK155981] | 92.8
22 | COc1cc(NC(=O)N2CCCCC2CO)cc(OC)c1OC (centres unmarked) [CBK155986] | 92
23 | CC(NC(=O)N1CCCCC1CO)c1ccccc1 (centres unmarked) [CBK155988] | 93.1
24 | O=C(Nc1cccnc1)N1CCCCC1CO (centres unmarked) [CBK155990] | 96.9

Row | SMILES | viability at 28.5 h, 10 µM [%]
25 | CSCCCNC(=O)N(C)C1CCN(C)C1 (centres unmarked) [CBK155995] | 104
26 | CN1CCC(N(C)C(=O)NCCN2CCOCC2)C1 (centres unmarked) [CBK156002] | 96.3
27 | COc1ccc2[nH]cc(CCNC(=O)N(C)C3CCN(C)C3)c2c1 (centres unmarked) [CBK156004] | 112
28 | CN1CCC(N(C)C(=O)NCc2ccc(C#N)cc2)C1 (centres unmarked) [CBK156005] | 89.3
29 | COc1ccc(CCNC(=O)N(C)C2CCN(C)C2)cc1OC (centres unmarked) [CBK156007] | 97.9
30 | CN1CCC(N(C)C(=O)NCCc2c[nH]c3ccccc23)C1 (centres unmarked) [CBK156012] | 85.4
31 | CN1CCC(N(C)C(=O)NCCOc2ccccc2)C1 (centres unmarked) [CBK156018] | 107
32 | COc1ccc(CNC(=O)N(C)C2CCN(C)C2)cc1OC (centres unmarked) [CBK156020] | 97.6
33 | CN1CCC(N(C)C(=O)NCCCN2CCCC2=O)C1 (centres unmarked) [CBK156021] | 92.3
34 | Cc1cc(CNC(=O)N2CCCC(CO)C2)no1 (centres unmarked) [CBK156028] | 94.5
35 | O=C(NCc1cccc(C(F)(F)F)c1)N1CCCC(CO)C1 (centres unmarked) [CBK156033] | 89.5
36 | O=C(NCc1ccc2c(c1)OCO2)N1CCCC(CO)C1 (centres unmarked) [CBK156034] | 104
37 | O=C(NCc1cccc2ccccc12)N1CCCC(CO)C1 (centres unmarked) [CBK156035] | 112
38 | O=C(NC(c1ccccc1)c1ccccc1)N1CCCC(CO)C1 (centres unmarked) [CBK156036] | 95.4
39 | N#Cc1ccc(CNC(=O)N2CCCC(CO)C2)cc1 (centres unmarked) [CBK156043] | 94.3
40 | O=C(Nc1ccc2[nH]ccc2c1)N1CCCC(CO)C1 (centres unmarked) [CBK156044] | 86.8
41 | CC(=O)Nc1cccc(NC(=O)N2CCCC(CO)C2)c1 (centres unmarked) [CBK156049] | 108
42 | O=C(NCc1c(Cl)cccc1Cl)N1CCCC(CO)C1 (centres unmarked) [CBK156054] | 95.7
43 | O=C(NCCOc1ccccc1)N1CCCC(CO)C1 (centres unmarked) [CBK156058] | 99.6
44 | O=C1CCCN1CCCNC(=O)N1CCCC(CO)C1 (centres unmarked) [CBK156063] | 94.3
45 | CC(NC(=O)N1CCCC(CO)C1)c1ccccc1 (centres unmarked) [CBK156066] | 87.1
46 | O=C(Nc1cccnc1)N1CCCC(CO)C1 (centres unmarked) [CBK156068] | 92.4
47 | O=C(O)C1CCN(C(=O)NCc2ccc(F)cc2)CC1 [CBK156070] | 117
48 | COc1cc(NC(=O)N2CCC(C(=O)O)CC2)cc(OC)c1OC [CBK156076] | 97.8

Row | SMILES | viability at 28.5 h, 10 µM [%]
49 | Cc1ccc(NC(=O)N2CCC(C(=O)O)CC2)cc1 [CBK156077] | 105
50 | CS(=O)(=O)c1ccc(-c2ccc3c(c2)C(=O)NC(C2CCN(C(=O)OCc4ccccc4)CC2)O3)cc1 (centres unmarked) [CBK156087] | 98.1
51 | CN1CCC(N2CCN(C(=O)NCC(c3ccccc3)c3ccccc3)CC2)CC1 [CBK156096] | 92.5
52 | CN1CCC(N2CCN(C(=O)NCCOc3ccccc3)CC2)CC1 [CBK156098] | 86.9
53 | CN1CCC(N2CCN(C(=O)NC3CCc4ccccc43)CC2)CC1 (centres unmarked) [CBK156110] | 106
54 | O=C(c1cccnc1NCc1ccc2c(c1)OCO2)N1CCNCC1 [CBK156112T] | 104
55 | CCN(CC)C(=O)C1CCCN(C(=O)NCCCN2CCN(C)CC2)C1 (centres unmarked) [CBK156115] | 89.7
56 | CCN(CC)C(=O)C1CCCN(C(=O)NCCCSC)C1 (centres unmarked) [CBK156118] | 95.1
57 | CCN(CC)C(=O)C1CCCN(C(=O)NCc2ccc(Cl)c(Cl)c2)C1 (centres unmarked) [CBK156119] | 98.8
58 | CCN(CC)C(=O)C1CCCN(C(=O)NCCc2c[nH]cn2)C1 (centres unmarked) [CBK156124] | 96.9
59 | CCN(CC)C(=O)C1CCCN(C(=O)NC(c2ccccc2)c2ccccc2)C1 (centres unmarked) [CBK156125] | 106
60 | CCN(CC)C(=O)C1CCCN(C(=O)NCc2ccc(C#N)cc2)C1 (centres unmarked) [CBK156132] | 102
61 | CCN(CC)C(=O)C1CCCN(C(=O)Nc2ccc3[nH]ccc3c2)C1 (centres unmarked) [CBK156133] | 98
62 | CCN(CC)C(=O)C1CCCN(C(=O)NCCc2ccc(OC)c(OC)c2)C1 (centres unmarked) [CBK156134] | 97.7
63 | CCN(CC)C(=O)C1CCCN(C(=O)Nc2ccc3c(c2)OCCO3)C1 (centres unmarked) [CBK156135] | 92.3
64 | CCN(CC)C(=O)C1CCCN(C(=O)Nc2ccc(Cl)cc2)C1 (centres unmarked) [CBK156136] | 90.1
65 | CCN(CC)C(=O)C1CCCN(C(=O)NCCc2c[nH]c3ccccc23)C1 (centres unmarked) [CBK156140] | 99.8
66 | CCN(CC)C(=O)C1CCCN(C(=O)NCC(c2ccccc2)c2ccccc2)C1 (centres unmarked) [CBK156145] | 94.4
67 | CCN(CC)CCCNC(=O)N1CCCC(C(=O)N(CC)CC)C1 (centres unmarked) [CBK156149] | 94.1
68 | CCOC(=O)CCCNC(=O)N1CCCC(C(=O)N(CC)CC)C1 (centres unmarked) [CBK156158] | 92.3
69 | CCOC(=O)N1CCC(NC(=O)N2CCCC(C(=O)N(CC)CC)C2)CC1 (centres unmarked) [CBK156159] | 109
70 | O=C(NCc1ccc2c(c1)OCO2)N1CCCCC1CO (centres unmarked) [CBK156166] | 89.3
71 | O=C(NCc1cccnc1)N1CCCCC1CO (centres unmarked) [CBK156169] | 105
72 | O=C(Nc1ccc2c(c1)OCCO2)N1CCCCC1CO (centres unmarked) [CBK156178] | 105

Row | SMILES | viability at 28.5 h, 10 µM [%]
73 | O=C(Nc1ccccc1Cl)N1CCCCC1CO (centres unmarked) [CBK156180] | 91.9
74 | O=C(NCc1c(Cl)cccc1Cl)N1CCCCC1CO (centres unmarked) [CBK156184] | 99.5
75 | NC(=O)c1ccc(NC(=O)N2CCCCC2CO)cc1 (centres unmarked) [CBK156185] | 83
76 | O=C(NCC(c1ccccc1)c1ccccc1)N1CCCCC1CO (centres unmarked) [CBK156186] | 93.5
77 | COc1ccc(CCNC(=O)N2CCCCC2CO)cc1 (centres unmarked) [CBK156188] | 92.8
78 | CC(=O)NCc1cccc(-c2cc(C(=O)O)cnc2-c2ccc(Cl)cc2)c1 [CBK156194] | 90.9
79 | O=C(NCc1cccs1)c1ccc(-c2ccc(OC(F)(F)F)cc2)nc1 [CBK156221] | 90
80 | O=C(NCCc1ccc(O)cc1)c1ccc(-c2ccc(OC(F)(F)F)cc2)nc1 [CBK156224] | 95.8
81 | CCNC(=O)c1ccc(-c2ccc(OC(F)(F)F)cc2)nc1 [CBK156230] | 110
82 | CN1CCCC1CCNC(=O)c1ccc(-c2ccoc2)nc1 (centres unmarked) [CBK156255] | 99.8
83 | CN1CCN(CCCNC(=O)c2ccc(-c3ccoc3)nc2)CC1 [CBK156257] | 93.3
84 | Cc1cnc(CNC(=O)c2ccc(-c3ccoc3)nc2)cn1 [CBK156267] | 109
85 | O=C(NCc1ccco1)c1ccc(-c2ccoc2)nc1 [CBK156279] | 105
86 | O=C(c1ccc(-c2ccoc2)nc1)N1CCCC1 [CBK156284] | 84.6
87 | COc1ccc(NC(=O)NS(=O)(=O)c2sc3ccc(Cl)cc3c2C)cc1OC [CBK156300] | 91.3
88 | O=S(=O)(Nc1ccc2[nH]ccc2c1)c1cc(C(F)(F)F)cc(C(F)(F)F)c1 [CBK156330] | 102
89 | O=S(=O)(c1ccccc1)n1cc2c3c(cccc31)CN(CCO)C2 [CBK156333T] | 106
90 | CCOC(=O)N1CCC(NC(=O)N2CCCC(CO)C2)CC1 (centres unmarked) [CBK156345] | 90.6
91 | CSCCCNC(=O)N(CCC#N)C1CCCCC1 [CBK156348] | 104
92 | N#CCCN(C(=O)NCc1ccc(Cl)c(Cl)c1)C1CCCCC1 [CBK156349] | 85.5
93 | N#CCCN(C(=O)NCc1cccc(C(F)(F)F)c1)C1CCCCC1 [CBK156350] | 96.8
94 | N#CCCN(C(=O)NCc1ccc2c(c1)OCO2)C1CCCCC1 [CBK156351] | 98.7
95 | COCCNC(=O)N(CCC#N)C1CCCCC1 [CBK156358] | 97.3
